Measurements reported in patent publication EP4000606A1, “COMPOUNDS FOR CORONAVIRUS INFECTION TREATMENT AND/OR PREVENTION” (priority 2020, dated 2022).
pIC50: −log10 of the molar value. Where two headings read alike, the source gives them in different places. Peptide text beside a SMILES is read from it. * marks the point of attachment. Cbz = O=C(OCc1ccccc1)*

System: SARS-CoV-2
Assay: microbe, parasite or virus in culture
Type: cell-based
[1] = confluence of SARS-CoV-2 infected VeroE6-EGFP cells after test compound treatment compared to control wells, 5 days
[2] = Severe acute respiratory syndrome coronavirus 2, 120 h

| Compound | Maximum confluence reached (%) (5 days) | other results |
| --- | --- | --- |
| C[C@@H]1COCCN1c1cc(=O)n2c(n1)N(Cc1cncc(Cl)c1)[C@H](C(F)(F)F)CC2 [compound 54, (8S)-9-[(5-Chloropyridin-3-yl)methyl]-2-[(3R)-3-methylmorpholin-4-yl]-8-(trifluoromethyl)-6,7,8,9-tetrahydro-4H-pyrimido[1,2-a]pyrimidin-4-one] | – | Maximum confluence reached (%) [1]: 89% |
| CC(C)(C)c1cc(C=C(C#N)C#N)cc(C(C)(C)C)c1O [compound 103, (3,5-Di-tert-butyl-4-hydroxybenzylidene)malononitrile] | 51.51 | pIC50 [2]: 3.69 |
| CC1(N2CCC(n3c([C@@H]4CCCNC4)nc4ccccc43)CC2)CCCCCCC1 [compound 51, 1-[1-(1-Methylcyclooctyl)piperidin-4-yl]-2-[3(R)-piperidinyl]-1H-benzimidazole] | 57.77 | – |
| c1cncc(CN2CCC(n3ncc4c(N5CCOCC5)nc(-c5ccc6[nH]ccc6c5)nc43)CC2)c1 [compound 32, 6-(1H-Indol-5-yl)-4-(4-morpholinyl)-1-[1-(pyridin-3-ylmethyl)piperidin-4-yl]-1H-pyrazolo[3,4-d]pyrimidine] | 67.69 | – |
| O=C(O)c1ccc(N2C(=O)C(=Cc3ccc(-c4ccc([N+](=O)[O-])cc4)o3)C=C2c2ccccc2)cc1 [compound 105, 4-[3-[5-(4-Nitrophenyl)furan-2-ylmethylene]-2-oxo-5-phenyl-2,3-dihydro-1H-pyrrol-1-yl]benzoic acid] | 52.15 | pIC50 [2]: 3.63 |
| CCN(CC)CCOc1ccc2c(c1)C(=O)c1cc(OCCN(CC)CC)ccc1-2 [compound 84, 2,7-Bis[2-(diethylamino)ethoxy]-9H-fluoren-9-one] | 68.89 | – |
| CC(C)(C)C(=O)C(=Cc1cccc([N+](=O)[O-])c1)n1cncn1 [compound 76, 4,4-dimethyl-1-(3-nitrophenyl)-2-(1H-1,2,4-triazol-1-yl)-1-penten-3-one] | – | Maximum confluence reached (%): 50.44%; pIC50 [2]: 5.36 |
| (1R,2S,3R)-3-(6-Amino-9H-purin-9-yl)-1,2-cyclopentanediol [compound 75] | – | Maximum confluence reached (%) [1]: 33.14%; pIC50 (half maximal concentration able to recover the cytopathic effect of infection, VeroE6-EGFP cells, 0.01 MOI, 5 days, 8 concentrations, read-out: IC50): 6.44 |
| Oc1c(Cl)cc(Cl)cc1Sc1cc(Cl)cc(Cl)c1O [compound 102, 2,2'-Thio-bis(4,6-dichlorophenol), Bis(2-hydroxy-3,5-dichlorophenyl) sulfide] | 31.25 | – |
| Cc1ccc(C(=O)Nc2cccc(C(F)(F)F)c2)cc1Nc1nc(-c2cccnc2)nc2c1cnn2C [compound 62, 4-methyl-3-{[1-methyl-6-(3-pyridinyl)-1H-pyrazolo[3,4-d]pyrimidin-4-yl]amino}-N-[3-(trifluoromethyl)phenyl]benzamide] | – | Maximum confluence reached (%): 88.43% |
| CC(C)c1cnn2c(NCc3ccccc3)cc(NCCCCCCN)nc12 [compound 48, N5-(6-Aminohexyl)-N7-benzyl-3-isopropylpyrazolo[1,5-a]pyrimidine-5,7-diamine] | 47.31 | – |
| Cc1[nH]c(/C=C2\C(=O)Nc3ccc(S(=O)(=O)Cc4c(Cl)cccc4Cl)cc32)c(C)c1C(=O)N1CCC[C@@H]1CN1CCCC1 [compound 53, 5-(2,6-Dichlorobenzylsulfonyl)-3(Z)-[3,5-dimethyl-4-[2(R)-(pyrrolidin-1-ylmethyl)pyrrolidin-1-ylcarbonyl]-1H-pyrrol-2-ylmethylene]-2,3-dihydro-1H-indol-2-one] | 95.69 | – |
| Cl.O=C(c1c2ccccc2cc2ccccc12)N1CCC(N2CCC[C@@H](C(=O)N3CCOCC3)C2)CC1 [compound 101, 1-[1'-(Anthracen-9-ylcarbonyl)-1,4'-bipiperidin-3(R)-yl]-1-(4-morpholinyl)methanone hydrochloride] | 50.88 | – |
| COc1ccc2c(c1)[C@]1(C[C@H]1c1ccc3c(/C=C/c4ccc(CN5C[C@@H](C)O[C@@H](C)C5)cc4)n[nH]c3c1)C(=O)N2.O=C(O)/C=C/C(=O)O [compound 33, (1R,2S)-2-[3-[(E)-2-[4-[(cis-2,6-Dimethylmorpholin-4-yl)methyl]phenyl]vinyl]-1H-indazol-6-yl]-5'-methoxyspiro[cyclopropane-1,3'-indol]-2'(1'H)-one (2E)-but-2-enedioate] | 105.46 | – |
| CNCc1ccc(-c2cc(-c3nc(-c4ccc(S(=O)(=O)C(C)C)cc4)cnc3N)on2)cc1 [compound 34, 3-[3-[4-[(Methylamino)methyl]phenyl]-1,2-oxazol-5-yl]-5-[4-(propan-2-ylsulfonyl)phenyl]pyrazin-2-amine] | 99.21 | – |
| C/C(=C\c1ccc(C(=O)O)cc1)c1ccc2c(c1)C(C)(C)CCC2(C)C [compound 26, 4-[2-(5,5,8,8-Tetramethyl-5,6,7,8-tetrahydronaphthalen-2-yl)-1(E)-propenyl]benzoic acid] | 105.73 | pIC50 [2]: 4.47 |
| Cc1cc(O[C@@H](CCC(F)(F)F)c2ccc(C(=O)NCCC(=O)O)cc2)cc(C)c1-c1ccc(C(C)(C)C)cc1 [compound 57, N-(4-[(1S)-1-[(4'-tert-Butyl-2,6-dimethylbiphenyl-4-yl)oxy]-4,4,4-trifluorobutyl]benzoyl)-beta-alanine] | 39.53 | – |
| O=C(NCCN1CCC2(CC1)C(=O)NCN2c1cccc(F)c1)c1ccc2ccccc2c1 [compound 56, N-[2-[1-(3-Fluorophenyl)-4-oxo-1,3,8-triazaspiro[4.5]dec-8-yl]ethyl]naphthalen-2-carboxamide] | 98.46 | – |
| O=C(C1CC1)N1CC[C@@H](Cc2n[nH]c(=O)n2-c2ccc(-c3ccc4ccoc4c3)cc2)C1 [compound 67, 4-[4-(1-Benzofuran-6-yl)phenyl]-5-[1-(cyclopropylcarbonyl)pyrrolidin-3(S)-ylmethyl]-3,4-dihydro-2H-1,2,4-triazol-3-one] | 31.06 | pIC50 [2]: 4.77 |
| C#CCC(Cc1cnc2nc(N)nc(N)c2n1)c1ccc(C(=O)N[C@@H](CCC(=O)O)C(=O)O)cc1 (stereo partly drawn) [compound 3, N-[4-[2-(2,4-Diaminopteridin-6-yl)-1-(2-propynyl)ethyl]benzoyl]-L-glutamic acid 10-Propargyl-10-deazaaminopterin] | 76.65 | – |
| O=C(c1c2ccccc2cc2ccccc12)N1CCC(N2CCC[C@@H](C(=O)N3CCOCC3)C2)CC1 [compound 81, 1-[1'-(Anthracen-9-ylcarbonyl)-1,4'-bipiperidin-3(R)-yl]-1-(4-morpholinyl)methanone] | – | Maximum confluence reached (%) [1]: 51% |
| CN(C)c1cccc(-c2c3c(=O)n(-c4ccccc4Cl)[nH]c3cc(=O)n2C)c1 [compound 13, 2-(2-Chlorophenyl)-4-[3-(dimethylamino)phenyl]-5-methyl-1H-pyrazolo[4,3-c]pyridine-3,6(2H,5H)-dione] | 101.52 | pIC50 [2]: 5.12 |
| CC(C)C[C@@H](C=O)NC(=O)[C@H](CC(C)C)NC(=O)[C@H](CC(C)C)NC(=O)OCc1ccccc1 [compound 52, Benzyloxycarbonyl-L-leucyl-L-leucyl-L-leucinal] (Cbz-Leu-Leu-Leu-aldehyde) | 82.81 | – |
| Nc1ccc(C(=O)Nc2cccc(-c3nc(N4CCOCC4)c4oc5ncccc5c4n3)c2)cn1 [compound 104, 6-Amino-N-[3-[4-(4-morpholinyl)pyrido[3',2':4,5]furo [3,2-d]pyrimidin-2-yl]phenyl]pyridine-3-carboxamide] | 35.48 | – |
